Measurements reported in PubChem BioAssay (NCI).
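1) Cells in 96-well plates. 2) Compound, 48 h, 5 concentrations. 3) Linear interpolation between surrounding doses. 4) Unreached endpoint = highest concentration. Definition used: TGI = concentration required for complete inhibition of growth.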

Experiments:
Experiment in all cases: growth of human tumour cells (NCI), 48 h
786-0 renal = system: 786-0 renal
A498 renal = system: A498 renal
A549 NSCLC = system: A549 NSCLC
ACHN renal = system: ACHN renal
BT-549 breast = system: BT-549 breast
CAKI-1 renal = system: CAKI-1 renal
CCRF-CEM leukemia = system: CCRF-CEM leukemia
COLO 205 colon = system: COLO 205 colon
DU-145 prostate = system: DU-145 prostate
EKVX NSCLC = system: EKVX NSCLC
HCC-2998 colon = system: HCC-2998 colon
HCT-116 colon = system: HCT-116 colon
HCT-15 colon = system: HCT-15 colon
HL-60(TB) leukemia = system: HL-60(TB) leukemia
HOP-62 NSCLC = system: HOP-62 NSCLC
HOP-92 NSCLC = system: HOP-92 NSCLC
HS 578T breast = system: HS 578T breast
HT29 colon = system: HT29 colon
IGROV1 ovarian = system: IGROV1 ovarian
K-562 leukemia = system: K-562 leukemia
KM12 colon = system: KM12 colon
LOX IMVI melanoma = system: LOX IMVI melanoma
M14 melanoma = system: M14 melanoma
MALME-3M melanoma = system: MALME-3M melanoma
MCF7 breast = system: MCF7 breast
MDA-MB-231 breast = system: MDA-MB-231 breast
MDA-MB-435 = system: MDA-MB-435
MDA-N = system: MDA-N
MOLT-4 leukemia = system: MOLT-4 leukemia
NCI-H23 lung = system: NCI-H23 lung
NCI-H460 lung = system: NCI-H460 lung
NCI-H522 lung = system: NCI-H522 lung
NCI/ADR-RES ovarian = system: NCI/ADR-RES ovarian
OVCAR-3 ovarian = system: OVCAR-3 ovarian
OVCAR-5 ovarian = system: OVCAR-5 ovarian
OVCAR-8 ovarian = system: OVCAR-8 ovarian
PC-3 prostate = system: PC-3 prostate
RPMI-8226 leukemia = system: RPMI-8226 leukemia
RXF 393 renal = system: RXF 393 renal
SF-268 CNS = system: SF-268 CNS
SF-295 CNS = system: SF-295 CNS
SF-539 CNS = system: SF-539 CNS
SK-MEL-2 melanoma = system: SK-MEL-2 melanoma
SK-MEL-28 melanoma = system: SK-MEL-28 melanoma
SK-MEL-5 melanoma = system: SK-MEL-5 melanoma
SK-OV-3 ovarian = system: SK-OV-3 ovarian
SNB-19 CNS = system: SNB-19 CNS
SNB-75 CNS = system: SNB-75 CNS
SR leukemia = system: SR leukemia
SW-620 colon = system: SW-620 colon
T-47D breast = system: T-47D breast
TK-10 renal = system: TK-10 renal
U251 CNS = system: U251 CNS
UACC-257 melanoma = system: UACC-257 melanoma
UACC-62 melanoma = system: UACC-62 melanoma
UO-31 renal = system: UO-31 renal
NCI-H226 lung = system: NCI-H226 lung
OVCAR-4 ovarian = system: OVCAR-4 ovarian
SN12C renal = system: SN12C renal

With CCOC(=O)CCC(NC(=O)c1ccc(Nc2nc3ccccc3n3cccc23)cc1)C(=O)OCC (configuration not stated) the TGI (786-0 renal) was 33.2 µM, the TGI (A498 renal) was over 100 µM and the TGI (A549 NSCLC) was over 100 µM. It also gave a TGI (ACHN renal) of 46 µM, a TGI (BT-549 breast) of 77.3 µM and a TGI (CAKI-1 renal) of over 100 µM. It also gave a TGI (CCRF-CEM leukemia) of over 100 µM, a TGI (COLO 205 colon) of over 100 µM and a TGI (DU-145 prostate) of 97.7 µM. The TGI (EKVX NSCLC) was over 100 µM, the TGI (HCC-2998 colon) was over 100 µM and the TGI (HCT-116 colon) was over 100 µM. The TGI (HCT-15 colon) was over 100 µM, the TGI (HL-60(TB) leukemia) was over 100 µM and the TGI (HOP-62 NSCLC) was 54.2 µM. It also gave a TGI (HOP-92 NSCLC) of over 100 µM, a TGI (HS 578T breast) of over 100 µM and a TGI (HT29 colon) of over 100 µM. For the same compound, the TGI (IGROV1 ovarian) was over 100 µM, the TGI (K-562 leukemia) was over 100 µM and the TGI (KM12 colon) was over 100 µM. The TGI (LOX IMVI melanoma) was over 100 µM, the TGI (M14 melanoma) was over 100 µM and the TGI (MALME-3M melanoma) was over 100 µM. The TGI (MCF7 breast) was over 100 µM, the TGI (MDA-MB-231 breast) was 48.4 µM and the TGI (MDA-MB-435) was over 100 µM. The TGI (MDA-N) was over 100 µM, the TGI (MOLT-4 leukemia) was 82.8 µM and the TGI (NCI-H23 lung) was over 100 µM. It also gave a TGI (NCI-H460 lung) of over 100 µM, a TGI (NCI-H522 lung) of 60 µM and a TGI (NCI/ADR-RES ovarian) of 48.5 µM. The TGI (OVCAR-3 ovarian) was 44.6 µM, the TGI (OVCAR-5 ovarian) was over 100 µM and the TGI (OVCAR-8 ovarian) was 77.9 µM. For the same compound, the TGI (PC-3 prostate) was 34.5 µM, the TGI (RPMI-8226 leukemia) was over 100 µM and the TGI (RXF 393 renal) was 32.8 µM. For the same compound, the TGI (SF-268 CNS) was over 100 µM, the TGI (SF-295 CNS) was 71.1 µM and the TGI (SF-539 CNS) was 34.6 µM. The TGI (SK-MEL-2 melanoma) was 39.7 µM, the TGI (SK-MEL-28 melanoma) was over 100 µM and the TGI (SK-MEL-5 melanoma) was over 100 µM. For the same compound, the TGI (SK-OV-3 ovarian) was 50.1 µM, the TGI (SNB-19 CNS) was over 100 µM and the TGI (SNB-75 CNS) was 53.6 µM. For the same compound, the TGI (SR leukemia) was over 100 µM, the TGI (SW-620 colon) was over 100 µM and the TGI (T-47D breast) was 1.99 µM. For the same compound, the TGI (TK-10 renal) was 64.7 µM, the TGI (U251 CNS) was 62.3 µM and the TGI (UACC-257 melanoma) was 72.5 µM. The TGI (UACC-62 melanoma) was 53.6 µM and the TGI (UO-31 renal) was over 100 µM.
Work on C[C@]12CC[C@H](O)C=C1CC[C@@H]1[C@@H]2CC[C@]2(C)C(=N/O)/C(=C/c3ccncc3)C[C@@H]12 yielded a TGI (786-0 renal) of 25.5 µM, a TGI (A549 NSCLC) of 29.8 µM and a TGI (ACHN renal) of 23.8 µM. For the same compound, the TGI (BT-549 breast) was 81.5 µM, the TGI (CAKI-1 renal) was over 100 µM and the TGI (CCRF-CEM leukemia) was 32.9 µM. For the same compound, the TGI (COLO 205 colon) was 38.8 µM, the TGI (DU-145 prostate) was 19.9 µM and the TGI (EKVX NSCLC) was over 100 µM. The TGI (HCC-2998 colon) was 12.5 µM, the TGI (HCT-116 colon) was 18.7 µM and the TGI (HCT-15 colon) was over 100 µM. It also gave a TGI (HL-60(TB) leukemia) of 35.4 µM, a TGI (HOP-62 NSCLC) of 30.9 µM and a TGI (HOP-92 NSCLC) of 31.6 µM. The TGI (HS 578T breast) was over 100 µM, the TGI (HT29 colon) was 18.9 µM and the TGI (IGROV1 ovarian) was 81.6 µM. It also gave a TGI (K-562 leukemia) of over 100 µM, a TGI (KM12 colon) of over 100 µM and a TGI (LOX IMVI melanoma) of over 100 µM. For the same compound, the TGI (M14 melanoma) was 24.6 µM, the TGI (MALME-3M melanoma) was 48.5 µM and the TGI (MCF7 breast) was 16.7 µM. It also gave a TGI (MDA-MB-231 breast) of 23.9 µM, a TGI (MDA-MB-435) of 42.8 µM and a TGI (MDA-N) of 44 µM. For the same compound, the TGI (MOLT-4 leukemia) was over 100 µM, the TGI (NCI-H226 lung) was 25.3 µM and the TGI (NCI-H23 lung) was 63.7 µM. It also gave a TGI (NCI-H460 lung) of 30.7 µM, a TGI (NCI-H522 lung) of 33.3 µM and a TGI (NCI/ADR-RES ovarian) of 96.8 µM. It also gave a TGI (OVCAR-3 ovarian) of 19.1 µM, a TGI (OVCAR-4 ovarian) of 76 µM and a TGI (OVCAR-5 ovarian) of 43.8 µM. The TGI (OVCAR-8 ovarian) was 76 µM, the TGI (PC-3 prostate) was 14.6 µM and the TGI (RPMI-8226 leukemia) was 19.9 µM. The TGI (RXF 393 renal) was 26.3 µM, the TGI (SF-268 CNS) was 49.4 µM and the TGI (SF-295 CNS) was 39.5 µM. The TGI (SF-539 CNS) was 27.3 µM, the TGI (SK-MEL-2 melanoma) was 22.6 µM and the TGI (SK-MEL-28 melanoma) was 60.2 µM. The TGI (SK-MEL-5 melanoma) was 18 µM, the TGI (SK-OV-3 ovarian) was 34.9 µM and the TGI (SN12C renal) was 32.8 µM. It also gave a TGI (SNB-19 CNS) of 32 µM, a TGI (SNB-75 CNS) of 43.8 µM and a TGI (SR leukemia) of 16.2 µM. It also gave a TGI (SW-620 colon) of over 100 µM, a TGI (T-47D breast) of 44.4 µM and a TGI (TK-10 renal) of 38.3 µM. The TGI (U251 CNS) was 19.6 µM, the TGI (UACC-257 melanoma) was 32.8 µM and the TGI (UACC-62 melanoma) was 19.3 µM. It also gave a TGI (UO-31 renal) of 20.5 µM.
With OCc1ccc2c(c1)CC1(C2)Cc2cc3c(cc2C1)CCC3 the TGI (786-0 renal) was over 100 µM, the TGI (A498 renal) was 35.4 µM and the TGI (A549 NSCLC) was over 100 µM. For the same compound, the TGI (ACHN renal) was over 82.4 µM, the TGI (BT-549 breast) was over 100 µM and the TGI (CAKI-1 renal) was over 100 µM. It also gave a TGI (CCRF-CEM leukemia) of over 100 µM, a TGI (DU-145 prostate) of over 100 µM and a TGI (EKVX NSCLC) of over 100 µM. It also gave a TGI (HCC-2998 colon) of over 100 µM, a TGI (HCT-116 colon) of over 100 µM and a TGI (HCT-15 colon) of over 100 µM. For the same compound, the TGI (HL-60(TB) leukemia) was over 100 µM, the TGI (HOP-62 NSCLC) was over 46.5 µM and the TGI (HOP-92 NSCLC) was over 74 µM. It also gave a TGI (HS 578T breast) of 29.3 µM, a TGI (HT29 colon) of over 100 µM and a TGI (IGROV1 ovarian) of over 100 µM. The TGI (K-562 leukemia) was over 100 µM, the TGI (KM12 colon) was over 100 µM and the TGI (LOX IMVI melanoma) was over 100 µM. It also gave a TGI (M14 melanoma) of over 100 µM, a TGI (MALME-3M melanoma) of over 100 µM and a TGI (MCF7 breast) of over 100 µM. The TGI (MDA-MB-231 breast) was over 100 µM, the TGI (MDA-MB-435) was 0.615 µM and the TGI (MDA-N) was 1.74 µM. For the same compound, the TGI (MOLT-4 leukemia) was over 100 µM, the TGI (NCI-H226 lung) was over 100 µM and the TGI (NCI-H23 lung) was over 100 µM. It also gave a TGI (NCI-H460 lung) of over 100 µM, a TGI (NCI-H522 lung) of over 27.6 µM and a TGI (NCI/ADR-RES ovarian) of over 100 µM. For the same compound, the TGI (OVCAR-3 ovarian) was over 100 µM, the TGI (OVCAR-4 ovarian) was over 100 µM and the TGI (OVCAR-5 ovarian) was over 100 µM. The TGI (OVCAR-8 ovarian) was over 100 µM, the TGI (PC-3 prostate) was over 34.6 µM and the TGI (RPMI-8226 leukemia) was over 100 µM. The TGI (RXF 393 renal) was 28.5 µM, the TGI (SF-268 CNS) was over 100 µM and the TGI (SF-295 CNS) was over 44.5 µM. The TGI (SF-539 CNS) was over 100 µM, the TGI (SK-MEL-2 melanoma) was over 100 µM and the TGI (SK-MEL-28 melanoma) was over 100 µM. For the same compound, the TGI (SK-MEL-5 melanoma) was over 31.2 µM, the TGI (SK-OV-3 ovarian) was over 100 µM and the TGI (SN12C renal) was over 50.8 µM. For the same compound, the TGI (SNB-19 CNS) was over 100 µM, the TGI (SNB-75 CNS) was 8.18 µM and the TGI (SR leukemia) was over 100 µM. It also gave a TGI (SW-620 colon) of over 31.6 µM, a TGI (T-47D breast) of over 100 µM and a TGI (TK-10 renal) of over 79.6 µM. For the same compound, the TGI (U251 CNS) was over 100 µM, the TGI (UACC-257 melanoma) was over 100 µM and the TGI (UACC-62 melanoma) was over 72.2 µM. It also gave a TGI (UO-31 renal) of over 100 µM.
